For one test, the system named is H520 NSCLC cell line. Particulars: dasatinib, cited from earlier work.
The target in the next test is MET (Homo sapiens, UniProt P08581). The test can be described thus: KinAffinity target profiling. It counts as binding. The arrangement: endogenous in cells; host or cells: PC9 cells (lysate). Particulars: PC9 cell extract, read-out: KD_free. The method, then: For in vitro association experiments 4×10^8 PC9 cells were lysed in buffer containing 20 mM HEPES pH 7.5, 400 mM NaCl. 0.25% Triton X-100, 1 mM DTT, 1.5 mM MgCl2, 0.5 mM ZnCl2, 0.5 mM EDTA, 0.5 mM EGTA, 1600 U/ml Benzonase plus additives (10 μg/ml aprotinin, 10 μg/ml leupeptin, 1 mM PMSF, 1 mM Na3VO4, 10 mM NaF). After centrifugation the supernatant was adjusted to 1 M NaCl, filtered through a 0.45 μm celluloseacetate filter and subjected to KinAffinity™ beads representing several different broad-spectrum kinase inhibitors immobilized on Sepharose beads. For each in vitro association experiment 750 μl cell extract (4 mg/ml) were incubated with 30 μl KinAffinity™ beads for 2.5 h at 4° C. […] The extracted peptides were derivatized for quantitative mass spectrometry using the TMT 6-plex reagent according to the manufactures instructions and were subsequently combined for mass spectrometric analysis.
MET, sequence (P08581 25-1390): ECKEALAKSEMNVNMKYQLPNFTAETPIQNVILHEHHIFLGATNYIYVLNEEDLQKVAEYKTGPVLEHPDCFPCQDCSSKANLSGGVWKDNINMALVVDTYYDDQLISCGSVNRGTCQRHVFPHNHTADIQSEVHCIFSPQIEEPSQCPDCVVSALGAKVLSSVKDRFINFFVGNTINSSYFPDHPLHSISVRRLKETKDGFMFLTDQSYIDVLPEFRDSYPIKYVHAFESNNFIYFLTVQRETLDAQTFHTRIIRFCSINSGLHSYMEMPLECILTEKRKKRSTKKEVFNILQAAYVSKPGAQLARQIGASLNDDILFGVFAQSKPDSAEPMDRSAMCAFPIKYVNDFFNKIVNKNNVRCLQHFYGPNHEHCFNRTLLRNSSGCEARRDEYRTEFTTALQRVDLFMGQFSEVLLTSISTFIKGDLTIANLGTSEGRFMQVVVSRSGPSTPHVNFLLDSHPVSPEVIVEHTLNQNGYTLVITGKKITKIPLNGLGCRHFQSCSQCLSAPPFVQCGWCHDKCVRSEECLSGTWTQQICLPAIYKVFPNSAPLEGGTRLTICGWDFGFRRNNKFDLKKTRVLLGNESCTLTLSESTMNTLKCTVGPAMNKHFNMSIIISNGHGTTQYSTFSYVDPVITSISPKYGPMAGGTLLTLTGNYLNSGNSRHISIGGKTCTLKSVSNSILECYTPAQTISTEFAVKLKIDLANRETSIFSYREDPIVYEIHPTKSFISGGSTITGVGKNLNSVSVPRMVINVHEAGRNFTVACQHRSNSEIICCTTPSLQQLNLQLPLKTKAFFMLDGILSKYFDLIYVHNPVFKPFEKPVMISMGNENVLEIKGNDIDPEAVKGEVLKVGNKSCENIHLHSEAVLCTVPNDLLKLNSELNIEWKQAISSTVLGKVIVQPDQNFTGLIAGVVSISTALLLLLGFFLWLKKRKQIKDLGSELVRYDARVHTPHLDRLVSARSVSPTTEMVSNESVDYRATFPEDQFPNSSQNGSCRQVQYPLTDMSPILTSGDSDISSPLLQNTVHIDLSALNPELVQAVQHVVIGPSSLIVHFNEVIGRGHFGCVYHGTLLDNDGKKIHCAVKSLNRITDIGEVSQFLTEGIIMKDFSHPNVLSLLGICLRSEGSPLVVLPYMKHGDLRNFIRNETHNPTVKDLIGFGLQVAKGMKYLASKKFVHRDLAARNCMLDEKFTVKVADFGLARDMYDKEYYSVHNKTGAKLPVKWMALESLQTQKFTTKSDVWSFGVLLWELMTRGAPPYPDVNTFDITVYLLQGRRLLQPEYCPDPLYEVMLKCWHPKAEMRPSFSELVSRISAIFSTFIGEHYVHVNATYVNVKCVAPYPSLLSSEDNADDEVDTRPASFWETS
Mass spectrometric analysis of the labeled and combined peptide fractions was carried out by on-line nanoLC-MS/MS. […] The resulting fragmentation spectra were also recorded in the linear ion trap.
Regarding the search parameters, the minimal peptide length was set to 6 amino acids, trypsin was selected as proteolytic enzyme and maximally 2 missed cleavage sites were allowed. […] The intensities of the TMT reporter ions were read from the msm files. […]

For `Cc1nc(Nc2ncc(C(=O)Nc3c(C)cccc3Cl)s2)cc(N2CCN(CCO)CC2)n1` [dasatinib, N-(2-chloro-6-methylphenyl)-2-[[6-[4-(2-hydroxyethyl)piperazin-1-yl]-2-methylpyrimidin-4-yl]amino]-1,3-thiazole-5-carboxamide], in the test on H520 NSCLC cell line (Sos et al. 2009, read-out: GI50 literature), the GI50 is 11.6 µM. In addition, the IC50 with H520 NSCLC cell line (read-out: Class) was greater than 1 µM.
For the compound `CN1CCN(CCOc2cc(OC3CCOCC3)c3c(Nc4c(Cl)ccc5c4OCO5)ncnc3c2)CC1` [saracatinib, N-(5-Chloro-1,3-benzodioxol-4-yl)-7-[2-(4-methyl-1-piperazinyl)ethoxy]-5-[(tetrahydro-2H-pyran-4-yl)oxy]-4-quinazolinamine], the Kd at MET was 6.66 µM.

The term GI50 denotes the concentration at which growth is held to half of that of the control.

The values above are taken from patent publication US9328386B2, “Markers for susceptibility to an inhibitor of an Src-family kinase” (Evotec (München) GmbH, priority 2011, dated 2016).
